Assay results published in US11939344B2, “Spirocyclic compounds” (ASTRAZENECA AB, priority 2021, dated 2024).

Legend:
[1] = system: HCT116 KO-MTAP cells; assay: PRMT5 cell SDMA assay, MTAP KO cells; format: cell-based; details: Homo sapiens, HCT-116; HCT116 MTAP KO, 48 hours; read-out: Cell SDMA IC50 (μM) (MTAP KO)
[2] = system: HCT116 WT cells; assay: PRMT5 cell SDMA assay, MTAP WT cells; format: cell-based; details: Homo sapiens, HCT-116; HCT116 MTAP WT, 48 hours; read-out: Cell SDMA IC50 (μM) (MTAP WT)

| IC50 [1] [µM] | IC50 [2] [µM] | Structure (SMILES) |
| --- | --- | --- |
| 0.032 | 0.86 | C[C@@H](N1CC[C@@]2(C1=O)c1ccc(F)cc1C(=O)N2Cc1cc2nc(N)c(F)cc2[nH]1)C1(C)CC1 (relative stereo) [Example 19, (S)-2-((5-Amino-6-fluoro-1H-pyrrolo[3,2-b]pyridin-2-yl)methyl)-5-fluoro-1′-((R*)-1-(1-methylcyclopropyl)ethyl)spiro[isoindoline-1,3′-pyrrolidine]-2′,3-dione] |
| 0.011 | 0.51 | Nc1nc2cc(CN3C(=O)c4cnccc4[C@]34CCN(Cc3ccc(F)cc3)C4=O)[nH]c2cc1F (single isomer, unassigned) [Example 22] |
| 0.014 | 0.44 | Nc1nc2cc(CN3C(=O)c4ccncc4[C@]34CCN(Cc3ccc(F)cc3)C4=O)[nH]c2cc1F (single isomer, unassigned) [Example 25] |
| 0.018 | 0.81 | C[C@H]1C[C@@]2(C(=O)N1C)c1ccc(F)cc1C(=O)N2Cc1cc2nc(N)c(F)cc2[nH]1 (single isomer, unassigned) [Example 29] |
| 0.0088 | 0.43 | Nc1nc2cc(CN3C(=O)c4cc(F)ccc4[C@]34CCN(Cc3ncccc3F)C4=O)[nH]c2cc1F [Example 12, (S)-2-((5-Amino-6-fluoro-1H-pyrrolo[3,2-b]pyridin-2-yl)methyl)-5-fluoro-1′-((3-fluoropyridin-2-yl)methyl)spiro[isoindoline-1,3′-pyrrolidine]-2′,3-dione] |

The next lines start with the compound.

| Structure (SMILES) | IC50 [1] [µM] | IC50 [2] [µM] |
| --- | --- | --- |
| Cn1cc(C#CCN2CC[C@@]3(C2=O)c2ccc(F)cc2C(=O)N3Cc2cc3nc(N)c(F)cc3[nH]2)cn1 [Example 4, (S)-2-((5-Amino-6-fluoro-1H-pyrrolo[3,2-b]pyridin-2-yl)methyl)-5-fluoro-1′-(3-(1-methyl-1H-pyrazol-4-yl)prop-2-yn-1-yl)spiro[isoindoline-1,3′-pyrrolidine]-2′,3-dione] | 0.0094 | 0.19 |
| N#Cc1ccc(CN2CC[C@@]3(C2=O)c2ccc(F)cc2C(=O)N3Cc2cc3nc(N)c(F)cc3[nH]2)cc1F [Example 5, (S)-4-((2-((5-Amino-6-fluoro-1H-pyrrolo[3,2-b]pyridin-2-yl)methyl)-5-fluoro-2′,3-dioxospiro[isoindoline-1,3′-pyrrolidin]-1′-yl)methyl)-2-fluorobenzonitrile] | 0.0057 | 0.17 |
| Nc1nc2cc(CN3C(=O)c4cc(F)ccc4[C@]34CCN(Cc3cccc(-n5nccn5)c3)C4=O)[nH]c2cc1F [Example 6, (S)-1′-(3-(2H-1,2,3-Triazol-2-yl)benzyl)-2-((5-amino-6-fluoro-1H-pyrrolo[3,2-b]pyridin-2-yl)methyl)-5-fluorospiro[isoindoline-1,3′-pyrrolidine]-2′,3-dione] | 0.0017 | 0.054 |
| Nc1nc2cc(CN3C(=O)c4cc(F)ccc4[C@]34CCN(Cc3cc(F)ccc3F)C4=O)[nH]c2cc1F [Example 7, (S)-2-((5-Amino-6-fluoro-1H-pyrrolo[3,2-b]pyridin-2-yl)methyl)-1′-(2,5-difluorobenzyl)-5-fluorospiro[isoindoline-1,3′-pyrrolidine]-2′,3-dione] | 0.0017 | 0.036 |
| Nc1nc2cc(CN3C(=O)c4cc(F)ccc4[C@]34CCN(CC3(CF)CC3)C4=O)[nH]c2cc1F [Example 9, (S)-2-((5-Amino-6-fluoro-1H-pyrrolo[3,2-b]pyridin-2-yl)methyl)-5-fluoro-1′-((1-(fluoromethyl)cyclopropyl)methyl)spiro[isoindoline-1,3′-pyrrolidine]-2′,3-dione] | 0.015 | 0.53 |
| Nc1nc2cc(CN3C(=O)c4cc(F)ccc4[C@]34CCN(CCOC(F)F)C4=O)[nH]c2cc1F [Example 11, (S)-2-((5-Amino-6-fluoro-1H-pyrrolo[3,2-b]pyridin-2-yl)methyl)-1′-(2-(difluoromethoxy)ethyl)-5-fluorospiro[isoindoline-1,3′-pyrrolidine]-2′,3-dione] | 0.02 | 0.81 |
